Results as given in ChEMBL document CHEMBL1201862, “PubChem BioAssay data set” (2004).
Activity calls are given as the source filed them.

Assays:
Melanocortin receptor 4 = Melanocortin receptor 4 (Homo sapiens, UniProt P32245); format: functional, cell-based;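 further: Cell-based assay with luminescence read-out, confirmatory dose-response testing for agonist activity of biased ligands at MC4R; human U2OS cells with tagged receptor and beta-arrestin; potency of agonists that increase receptor coupling to beta-arrestin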
[1] = biological target: T1, Ubiquitin-conjugating enzyme E2 N (Homo sapiens, UniProt P61088); format: functional;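 further: Dose-response confirmation in a TR-FRET assay detecting UBC13-driven polyubiquitin chain formation, inhibition measured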
T1 sequence (P61088 whole entry): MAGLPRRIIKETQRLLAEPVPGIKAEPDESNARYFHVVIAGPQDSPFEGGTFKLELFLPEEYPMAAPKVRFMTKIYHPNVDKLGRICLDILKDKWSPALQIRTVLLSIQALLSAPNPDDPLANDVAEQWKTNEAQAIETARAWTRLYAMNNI

[2] = Luminescence Cell-Based Dose Retest to Confirm Inhibitors of Cancer Stem Cells. [Related pubchem assays (depositor defined):AID2717, AID2721]; format: functional; conditions: Homo sapiens
[3] = microbe, parasite or virus in culture; format: functional; conditions: Mycobacterium tuberculosis
[4] = HEK293 cell cytotoxicity, dose response, cytotoxicity control, cherry-picks, set 5 (AID 1053117); format: functional, cell-based
[5] = HEK293T cytotoxicity, dose response, cytotoxicity control for miR-122 modulator project, cell-based, activator set, cherry-pick (AID 720690); format: functional;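 further: HEK293T human cells scored for general mammalian cytotoxicity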
[6] = cytotoxicity toward NIH3T3 fibroblasts, dose response, counter-screen, cell-based, ATP luminescence, mouse fibroblasts (AID 2010); format: functional;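 further: cells exposed to compound for about 90 hours before reading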
[7] = miR-122 activators in hepatoma reporter cells, dose response, cell-based, Huh7 psiCHECK-miR122, Renilla luciferase, cherry-picked (AID 651956); format: functional;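 further: huh7 hepatoma cells stably carrying a psiCHECK-2 miR-122 sensor plasmid; renilla luciferase signal reporting endogenous miR-122 activity after 48 h compound exposure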
Streptokinase A = biological target: T2, Streptokinase A (Streptococcus pyogenes serotype M1, UniProt P10520); test: S. pyogenes streptokinase expression inhibitors, potency, dose response, plasminogen activation absorbance, OD405 (AID 1914); format: functional, Streptococcus pyogenes M1 GAS;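 further: secreted streptokinase activity via plasminogen activation per viability signal from cell pellet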
T2 sequence (P10520 whole entry): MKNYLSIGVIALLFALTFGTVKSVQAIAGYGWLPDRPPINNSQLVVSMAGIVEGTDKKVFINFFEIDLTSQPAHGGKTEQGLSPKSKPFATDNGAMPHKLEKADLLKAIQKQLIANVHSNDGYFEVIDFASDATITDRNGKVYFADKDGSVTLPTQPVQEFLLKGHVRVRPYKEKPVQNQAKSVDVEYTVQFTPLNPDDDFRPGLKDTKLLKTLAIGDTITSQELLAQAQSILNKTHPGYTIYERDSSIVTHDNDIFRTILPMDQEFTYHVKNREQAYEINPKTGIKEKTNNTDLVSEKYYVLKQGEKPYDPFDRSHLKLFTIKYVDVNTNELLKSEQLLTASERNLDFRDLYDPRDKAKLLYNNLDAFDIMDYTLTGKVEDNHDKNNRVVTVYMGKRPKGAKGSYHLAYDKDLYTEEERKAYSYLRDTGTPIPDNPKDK

[8] = tested on: Streptococcus sp. 'group A'; test: growth inhibition of control SK(-) GAS strain, dose response, counter-screen for streptokinase expression inhibitor project, luminescence, kanamycin, BacTiterGlo, confirmation (AID 1900); format: functional, organism-based
Streptococcus = test: Group A Streptococcus viability loss, dose response, counter-screen for streptokinase expression inhibitor project, luminescence, BacTiterGlo (AID 1915); format: functional, organism-based;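 further: potency for reduction of bacterial viability or growth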
[9] = inhibitors of intracellular T. cruzi replication, confirmation, NIH3T3 host cells, beta-gal luminescence (AID 2044); format: functional, cell-based;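 further: intracellular parasites grown in NIH/3T3 mouse fibroblasts as host cells; luminescent beta-galactosidase reporter signal from transgenic T. cruzi replicating inside host cells; inhibitors lower the luminescence signal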
Protein Wnt-3a = Protein Wnt-3a (Mus musculus, UniProt P27467); test: Wnt3a-driven reporter signaling inhibition, dose response, selectivity assay for Gli-SUFU antagonist project, Wnt-LIGHT cells, luminescence (AID 651570); format: functional; conditions: read-out: IC50_Mean;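 further: Wnt-LIGHT reporter cells stimulated with conditioned medium from Wnt3a-producing cells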
[10] = cytotoxicity in OVCAR8 ovarian cancer cells, dose response, PAX8 project, cell-based, plate reader, dry powder samples (AID 743197); format: functional; conditions: OVCAR-8
[11] = NIH:OVCAR-3 ovarian cancer cell cytotoxicity, dose response, PAX8 inhibitor project, plate reader, dry powder samples (AID 743044); format: functional, cell-based
[12] = IGROV1 ovarian cancer cell cytotoxicity, dose response, PAX8 inhibitor project, plate reader, dry powder samples (AID 743043); format: functional, cell-based; conditions: IGROV-1
Paired box protein Pax-8 = Paired box protein Pax-8 (Homo sapiens, UniProt Q06710); test: inhibitors of PAX8-driven TPO luciferase reporter, dose response, RMG-I cells, cherry-pick (AID 687027); format: functional, cell-based;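 further: luciferase reporter driven by Pax8 target thyroperoxidase promoter measured by SteadyGlo luminescence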
[13] = T. cruzi growth inhibition in host cells, dose response, cell-based, plate reader, dry powder, set 2 (AID 652275); format: functional
cells [14] = format: functional, cell-based
cells [15] = format: functional, cell-based; remark: listed apart in the source
[16] = biological target: Ras and Rab interactor 1/Tyrosine-protein kinase ABL1 (Homo sapiens, UniProt P00519+Q13671); format: functional;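 further: biochemical TR-FRET dose-response test measuring inhibition of binding between Rin1 and Abl proteins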
Chain of Ras and Rab interactor 1/Tyrosine-protein kinase ABL1 (P00519 whole entry): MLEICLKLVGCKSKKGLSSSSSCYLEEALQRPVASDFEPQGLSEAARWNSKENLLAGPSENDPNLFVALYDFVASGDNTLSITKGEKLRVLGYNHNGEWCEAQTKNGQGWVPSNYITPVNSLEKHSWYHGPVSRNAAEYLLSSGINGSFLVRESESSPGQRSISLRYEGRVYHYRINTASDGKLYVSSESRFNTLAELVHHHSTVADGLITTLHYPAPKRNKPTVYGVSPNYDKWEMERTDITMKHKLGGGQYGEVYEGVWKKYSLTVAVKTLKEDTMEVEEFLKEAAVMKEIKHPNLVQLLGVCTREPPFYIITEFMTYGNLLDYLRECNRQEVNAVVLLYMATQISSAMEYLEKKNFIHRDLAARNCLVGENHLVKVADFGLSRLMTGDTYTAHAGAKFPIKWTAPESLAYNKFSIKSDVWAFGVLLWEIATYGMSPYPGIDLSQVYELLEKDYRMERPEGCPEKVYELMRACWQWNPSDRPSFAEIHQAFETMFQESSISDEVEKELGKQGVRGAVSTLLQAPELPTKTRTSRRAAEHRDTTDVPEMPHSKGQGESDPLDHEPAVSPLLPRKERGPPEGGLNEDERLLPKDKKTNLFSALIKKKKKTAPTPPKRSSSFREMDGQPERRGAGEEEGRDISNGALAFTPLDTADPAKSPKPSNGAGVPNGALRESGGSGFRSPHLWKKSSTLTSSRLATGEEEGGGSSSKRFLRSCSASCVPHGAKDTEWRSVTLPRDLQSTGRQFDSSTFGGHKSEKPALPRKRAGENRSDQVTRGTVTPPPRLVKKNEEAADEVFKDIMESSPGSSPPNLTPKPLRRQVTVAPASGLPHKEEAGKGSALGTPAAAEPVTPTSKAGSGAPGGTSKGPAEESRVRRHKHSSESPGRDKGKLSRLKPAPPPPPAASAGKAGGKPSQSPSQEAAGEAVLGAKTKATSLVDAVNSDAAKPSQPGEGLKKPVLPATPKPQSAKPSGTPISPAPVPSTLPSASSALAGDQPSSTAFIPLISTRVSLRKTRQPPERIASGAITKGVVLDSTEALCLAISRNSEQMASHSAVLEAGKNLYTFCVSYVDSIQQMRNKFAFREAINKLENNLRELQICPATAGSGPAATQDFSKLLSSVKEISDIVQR
Chain of Ras and Rab interactor 1/Tyrosine-protein kinase ABL1 (Q13671 whole entry): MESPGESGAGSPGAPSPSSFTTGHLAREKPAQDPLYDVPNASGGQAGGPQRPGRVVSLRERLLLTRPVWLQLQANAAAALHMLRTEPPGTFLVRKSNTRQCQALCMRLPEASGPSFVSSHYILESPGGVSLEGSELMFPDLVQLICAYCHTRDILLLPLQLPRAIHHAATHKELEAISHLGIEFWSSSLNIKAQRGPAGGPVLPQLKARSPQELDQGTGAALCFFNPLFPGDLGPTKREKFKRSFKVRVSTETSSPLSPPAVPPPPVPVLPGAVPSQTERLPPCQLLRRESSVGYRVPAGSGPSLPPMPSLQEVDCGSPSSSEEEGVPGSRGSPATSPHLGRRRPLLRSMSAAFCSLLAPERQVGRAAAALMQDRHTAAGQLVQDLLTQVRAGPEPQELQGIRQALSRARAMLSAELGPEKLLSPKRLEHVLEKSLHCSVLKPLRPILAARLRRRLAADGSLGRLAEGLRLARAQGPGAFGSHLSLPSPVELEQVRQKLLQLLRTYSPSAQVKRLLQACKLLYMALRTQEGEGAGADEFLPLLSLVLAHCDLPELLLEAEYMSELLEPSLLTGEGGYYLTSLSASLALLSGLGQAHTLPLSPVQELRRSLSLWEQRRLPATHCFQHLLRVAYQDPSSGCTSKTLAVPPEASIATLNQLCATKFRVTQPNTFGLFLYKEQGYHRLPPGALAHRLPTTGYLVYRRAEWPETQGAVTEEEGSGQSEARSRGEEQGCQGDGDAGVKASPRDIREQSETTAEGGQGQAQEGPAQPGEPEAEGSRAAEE

Chain of Protein Wnt-3a (P27467 whole entry): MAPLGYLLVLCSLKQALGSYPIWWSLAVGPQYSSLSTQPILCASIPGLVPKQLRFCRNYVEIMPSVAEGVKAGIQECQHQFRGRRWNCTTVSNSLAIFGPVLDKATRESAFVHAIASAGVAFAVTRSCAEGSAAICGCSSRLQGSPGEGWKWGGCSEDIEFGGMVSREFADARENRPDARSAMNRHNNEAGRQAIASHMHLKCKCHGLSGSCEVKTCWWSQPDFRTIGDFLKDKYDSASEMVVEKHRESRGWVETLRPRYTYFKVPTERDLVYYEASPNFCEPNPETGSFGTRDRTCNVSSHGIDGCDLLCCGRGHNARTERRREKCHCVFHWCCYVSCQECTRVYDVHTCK
Chain of Paired box protein Pax-8 (Q06710 whole entry): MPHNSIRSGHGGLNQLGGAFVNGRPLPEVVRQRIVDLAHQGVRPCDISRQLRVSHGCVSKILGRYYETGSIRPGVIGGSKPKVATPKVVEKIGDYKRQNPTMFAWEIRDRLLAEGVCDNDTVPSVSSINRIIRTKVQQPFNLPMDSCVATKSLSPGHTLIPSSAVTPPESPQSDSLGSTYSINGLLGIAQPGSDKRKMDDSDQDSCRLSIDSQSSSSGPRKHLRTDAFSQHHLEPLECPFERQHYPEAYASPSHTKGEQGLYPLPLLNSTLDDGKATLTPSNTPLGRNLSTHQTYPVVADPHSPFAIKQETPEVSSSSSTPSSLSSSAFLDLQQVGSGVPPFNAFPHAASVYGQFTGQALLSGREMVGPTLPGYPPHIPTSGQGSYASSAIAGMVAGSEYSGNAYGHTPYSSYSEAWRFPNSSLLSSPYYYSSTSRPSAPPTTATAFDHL
Chain of Melanocortin receptor 4 (P32245 whole entry): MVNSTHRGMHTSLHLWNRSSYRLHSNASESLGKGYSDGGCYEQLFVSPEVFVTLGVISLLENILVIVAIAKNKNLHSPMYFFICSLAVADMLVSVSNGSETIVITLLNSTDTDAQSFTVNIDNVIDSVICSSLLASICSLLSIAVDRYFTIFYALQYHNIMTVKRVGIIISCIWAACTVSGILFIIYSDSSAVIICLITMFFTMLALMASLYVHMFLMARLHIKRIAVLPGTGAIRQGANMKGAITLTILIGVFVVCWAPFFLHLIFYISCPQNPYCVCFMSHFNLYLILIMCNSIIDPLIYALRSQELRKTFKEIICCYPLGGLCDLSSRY

SMILES: CN(C)CCOc1ccc(-c2c(-c3ccsc3)sc3ccccc23)cc1
- EC50 (Melanocortin receptor 4): > 89.2 µM (inactive)
- IC50 [1]: > 20 µM (inactive)
- AC50 [2]: 3.47 µM (active)
- CC50 [3]: 11.3 µM (active)

SMILES: C[C@H]1CN([C@@H](C)CO)C(=O)c2cc(-c3ccccc3)cnc2O[C@@H]1CN(C)C(=O)c1cccc(F)c1
- AC50 [4]: > 52 µM (inactive)

SMILES: COc1ccc(-c2cc(C3CCN(c4ccc(C(C)=O)cc4[N+](=O)[O-])CC3)[nH]n2)cc1
- AC50 [5]: 17.6 µM (active)
- EC50 [6]: > 60 µM (not active)
- AC50 [2]: 2.46 µM (active)
- AC50 [7]: 23 µM (active)
- EC50 (Streptokinase A): > 150 µM (not active)
- EC50 [8]: 2.74 µM (active)
- EC50 (Streptococcus): 24.3 µM (active)
- EC50 [9]: 1.87 µM (active)

SMILES: O=C(Nc1nc(-c2cccs2)cs1)c1cccc(S(=O)(=O)N2CCCCCC2)c1
- IC50 (Protein Wnt-3a): 19.2 µM (active)

SMILES: C[C@H](CO)N1C[C@H](C)[C@@H](CN(C)Cc2ccc(C(F)(F)F)cc2)OCCCC[C@H](C)Oc2ccc(NS(=O)(=O)c3ccc(Cl)cc3)cc2C1=O
- AC50 [10]: 34.1 µM (active)
- AC50 [11]: 14.5 µM (active)
- AC50 [12]: 21.7 µM (active)
- AC50 (Paired box protein Pax-8): 7.37 µM (active)

SMILES: CN(C)CC#Cc1cccc(-c2nc(C(=O)NCCCN3CCOCC3)cc3c2[C@H](CCO)N([S+]([O-])C(C)(C)C)C3)c1 (some centres not stated)
- AC50 [13]: 1.24 µM (active)

SMILES: Oc1ccc(Cl)cc1/C=N/CCc1ccccc1
- EC50 (cells [14]): > 29.9 µM (inactive)
- IC50 (cells [15]): 9.79 µM (active)

SMILES: COc1ccccc1OCc1ccc(C(=O)N2CCN(C(=O)c3ccco3)CC2)cc1
- IC50 [16]: 36 µM (inactive)
